Molecules are shown by their SMILES.

This data set can be described thus: method code SF-AS, from DOI: 10.1002/ardp.19903230114, PMID: 2334269. The conditions noted are these: pH 7.4.
Molecule `CCCOC1(c2ccccc2)CN(C)C2CCCCC2O1` (configuration not stated) yielded a logD of 1.91.
For the molecule `CN1CC(O)(c2ccccc2)OC2CCCCC21` (configuration not stated), the pH-dependent lipophilicity (logD) was 1.81.
Under `OC1(c2ccccc2)CN2CCCCC2CO1` (configuration not stated) stands 1.77.
Molecule `CCOC1(c2ccccc2)CN2CCCCC2CO1` (configuration not stated) came in with a logD of 1.87.
The molecule `c1ccc(COC2(c3ccccc3)CN3CCCCC3CO2)cc1` (configuration not stated) yielded a pH-dependent lipophilicity (logD) of 1.95.
Regarding `CCCCN1CCOC(OCC)(c2ccccc2)C1` (configuration not stated), the logD was 2.
`CC(C)COC1(c2ccccc2)CN2CCCCC2CO1` (configuration not stated) came in with a logD of 1.95. The logD values of the last two molecules are within 0.2 log units of each other.
Molecule `CCCCN1CCOC(OCCC)(c2ccccc2)C1` (configuration not stated) came in with a logD of 2.03.
`CCCCOC1(c2ccccc2)CN2CCCCC2CO1` (configuration not stated) displayed a logD of 1.94.
Under `CCCOC1(c2ccccc2)CN2CCCCC2CO1` (configuration not stated) stands 1.92; under `CCCCOC1(c2ccccc2)CN(CCCC)CCO1` (configuration not stated), 2.13; under `CCCCCOC1(c2ccccc2)CN(C)C2CCCCC2O1` (configuration not stated), 2.05.

In general, logD refers to the decadic logarithm of the distribution of all forms, ionised or not, between an organic phase and buffer at a given pH. High values mean a more lipophilic compound, low ones a more hydrophilic compound.

(Values after the SangsterLogP compilation.)
